In patent publication US12329158B2, “Large-scale methods of uniformly coating packaging surfaces with a volatile antimicrobial to preserve food freshness” (AGROFRESH INC., priority 2013, dated 2025):
In brackets after ≈: the same amount, converted by molar mass. Where two headings read alike, the source gives them in different places.

Columns and labels:
Botrytis cinerea = experiment: Clamshells treated by sublimation; strawberries (Example 5); assay type: in vivo; conditions: 5 mg
Method: Five milligrams of Compound A was dissolved in 1 ml of ethanol prior to being uniformly administered to the interior of the clamshell by painting or spraying, and then dried for 5 minutes. After coating the clamshells with Compound A using various application techniques (i.e., sublimation, spraying, or painting), eight ethanol-washed strawberries were placed in the clamshell with stem end facing downwards. Each strawberry fruit was wounded using a T15 screwdriver tip to a uniform depth of eight mm (8 mm). […] Uninoculated strawberries were removed from their commercial package, and directly transferred into treated clamshells without any washing or inoculation steps.
Treated clamshells lids were closed, and then placed at 1° C. for an initial time period of 5 days. Clamshells were then removed from low temperature, and held for a second time period of 6 days at room temperature where the point of inoculation on the strawberry fruits was assessed for indication of disease incidence reported as a percentage (%). Severity of disease incidence was also reported.
This in vivo assay was used to evaluate the ability of Compound A to volatilize from a clamshell in order to control or inhibit fruit infection by pathogenic microorganism, Botrytis cinerea. This experiment was conducted exactly as described in Example 1, with a few exceptions. After equilibrating the clamshell overnight at 21° C., Compound A was administered to the clamshell by sublimation only. Compound A was sublimed onto the surface of the clamshell at a final treatment rate of 5 mg/clamshell. Strawberries were inoculated with Botrytis cinerea, placed within the clamshell for an initial time period of 6 days, and assessed for disease incidence and severity over a second time period of 7 days as described in Example 1.

Escherichia coli = experiment: Volatile assay against bacterial pathogens, MBC (Example 12); assay type: cell-based; conditions: E. coli; headspace concentration; 48 hours at 23 C
Method: (§1) 12-Well (6.5 mL volume per well) microtiter plates are used for the in vitro inhibition assay for volatile antimicrobial Compound A against additional bacterial pathogens. A 3-mL volume of Nutrient agar is added to each well and allowed to dry before introducing the pathogen. Escherichia coli, Pectobacterium carotovorum, Xanthomonas axonopodis and Salmonella enterica cell suspensions are adjusted to an optical density of 0.2 to 0.35, and further diluted 1/10, and 15 μL is pipetted to the center of each well and tilted to distribute uniformly. A Whatman #1 filter paper (CAT 1001-0155) is placed on the underside of a polyethylene PCR plate sealing film. […] The films with the treated disks are then applied over the inoculated plates and sealed. Plates are inverted, and incubated at 23° C. for 48 hours. After the incubation period, the bacteria colonies are dislodged in sterile water containing tween 80 (0.001%) and the optical density (OD; 600 nm) is determined. Results are summarized in Table 6, where the headspace concentration required to control at least 80% of bacterial growth is reported.

[1] = tested on: Pectobacterium carotovorum; experiment: as above; assay type: cell-based; conditions: P. carotovorum; headspace concentration; 48 hours at 23 C
Method: as §1

Salmonella enterica = experiment: as above; assay type: cell-based; conditions: S. enterica; headspace concentration; 48 hours at 23 C
Method: as §1

Xanthomonas axonopodis = experiment: as above; assay type: cell-based; conditions: X. axonopodis; headspace concentration; 48 hours at 23 C
Method: as §1

Penicillium expansum = experiment: Blue mold on apple and pear, contact assay (Example 25); assay type: in vivo; conditions: Contact (dip); rate not given; day 3 at 21 C after 5 days at 1 C
Method: A 250 mL solution of each concentration is used to dip two inoculated fruits, one minute per fruit, performed in triplicate per rate. The dipped fruits are then placed back into the clamshells and then into the SnapWare container and incubated at 1° C. for 5 days. […] Volatile application of Compound A results in excellent inhibition of browning and sporulation, whereas all other active ingredients result in no or little inhibition.

C. albicans = experiment: In vitro volatile assay, yeast infection species (Example 27); assay type: cell-based; conditions: Candida albicans
Method: More specifically, growth inhibition of yeast infection fungal species C. albicans and C. krusei (or I. orientalis) by volatile treatment of Compound 10 was assessed via a volatile assay.
Volatile assay: 6-well (16.5 mL volume per well) microtiter plates are used in an in vitro inhibition assay for Compound 10 (i.e., Compound A). A 7.5-mL volume of half strength PDA is added to each well. After drying, a mycelial plug (5 mm diameter) is aseptically obtained from actively growing cultures of C. albicans and C. krusei (or I. orientalis) and placed at the center of the plate with the mycelial side in contact with the agar. A Whatman #1 filter disk (Cat. No. 1001-325) is placed, in duplicate, on the underside of a polyethylene PCR plate sealing film. […] The acetone/methanol is permitted to evaporate for 5 minutes. The headspace around the inoculum is then sealed inside the well by the film with the adhering disk containing the fungicide and incubated inverted for 5 days at 28° C.

[2] = Solubility in methanol (remark in Example 25); assay type: physicochemical; conditions: room temperature

SMILES: OB1OCc2cc(F)ccc21 [Compound A, 5-fluoro-1,3-dihydro-1-hydroxy-2,1-benzoxaborole]
- Gray Mold Incidence (%) (Botrytis cinerea; Inoculated Fruit, Day 0): 0.0%
- Gray Mold Severity (0-4) (Botrytis cinerea; Inoculated Fruit, Day 0): 0.0
- Gray Mold Incidence (%) (Botrytis cinerea; Inoculated Fruit, Day 1): 0.0%
- Gray Mold Severity (0-4) (Botrytis cinerea; Inoculated Fruit, Day 1): 0.0
- Gray Mold Incidence (%) (Botrytis cinerea; Inoculated Fruit, Day 2): 0.0%
- Gray Mold Severity (0-4) (Botrytis cinerea; Inoculated Fruit, Day 2): 0.0
- Gray Mold Incidence (%) (Botrytis cinerea; Inoculated Fruit, Day 3): 0.0%
- Gray Mold Severity (0-4) (Botrytis cinerea; Inoculated Fruit, Day 3): 0.0
- Gray Mold Incidence (%) (Botrytis cinerea; Inoculated Fruit, Day 4): 0.0%
- Gray Mold Severity (0-4) (Botrytis cinerea; Inoculated Fruit, Day 4): 0.0
- Gray Mold Incidence (%) (Botrytis cinerea; Inoculated Fruit, Day 5): 16.7%
- Gray Mold Severity (0-4) (Botrytis cinerea; Inoculated Fruit, Day 5): 0.1
- Gray Mold Incidence (%) (Botrytis cinerea; Inoculated Fruit, Day 6): 18.8%
- Gray Mold Severity (0-4) (Botrytis cinerea; Inoculated Fruit, Day 6): 0.2
- Gray Mold Incidence (%) (Botrytis cinerea; Inoculated Fruit, Day 7): 16.7%
- Gray Mold Severity (0-4) (Botrytis cinerea; Inoculated Fruit, Day 7): 0.3
- Gray Mold Incidence (%) (Botrytis cinerea; Uninoculated Fruit, Day 0): 0.0%
- Gray Mold Severity (0-4) (Botrytis cinerea; Uninoculated Fruit, Day 0): 0.0
- Gray Mold Incidence (%) (Botrytis cinerea; Uninoculated Fruit, Day 1): 2.6%
- Gray Mold Severity (0-4) (Botrytis cinerea; Uninoculated Fruit, Day 1): 0.4
- Gray Mold Incidence (%) (Botrytis cinerea; Uninoculated Fruit, Day 2): 0.1%
- Gray Mold Severity (0-4) (Botrytis cinerea; Uninoculated Fruit, Day 2): 1.0
- Gray Mold Incidence (%) (Botrytis cinerea; Uninoculated Fruit, Day 3): 26.3%
- Gray Mold Severity (0-4) (Botrytis cinerea; Uninoculated Fruit, Day 3): 1.0
- Gray Mold Incidence (%) (Botrytis cinerea; Uninoculated Fruit, Day 4): 34.1%
- Gray Mold Severity (0-4) (Botrytis cinerea; Uninoculated Fruit, Day 4): 1.0
- Gray Mold Incidence (%) (Botrytis cinerea; Uninoculated Fruit, Day 5): 40.0%
- Gray Mold Severity (0-4) (Botrytis cinerea; Uninoculated Fruit, Day 5): 1.3
- Gray Mold Incidence (%) (Botrytis cinerea; Uninoculated Fruit, Day 6): 43.3%
- Gray Mold Severity (0-4) (Botrytis cinerea; Uninoculated Fruit, Day 6): 1.3
- Gray Mold Incidence (%) (Botrytis cinerea; Uninoculated Fruit, Day 7): 54.1%
- Gray Mold Severity (0-4) (Botrytis cinerea; Uninoculated Fruit, Day 7): 1.6
- Rate (mg/L) offering at least 80% control (Escherichia coli): 35.7 mg/L
- Rate (mg/L) offering at least 80% control [1]: 2.2 mg/L
- Rate (mg/L) offering at least 80% control (Salmonella enterica): 17.9 mg/L
- Rate (mg/L) offering at least 80% control (Xanthomonas axonopodis): 4.5 mg/L
- Apple Browning (mm) (Penicillium expansum): 9.9 mm
- Apple Sporulation (mm) (Penicillium expansum): 2.3 mm
- Pear Browning (mm) (Penicillium expansum): 18.9 mm
- Pear Sporulation (mm) (Penicillium expansum): 8.4 mm
- inhibition at 0.017 µg/mL (C. albicans; 0.017 mg/L, read-out: Growth Inhibition (%) C. albicans): 2%
- inhibition at 0.035 µg/mL (C. albicans; 0.035 mg/L, read-out: Growth Inhibition (%) C. albicans): 1.6%
- inhibition at 0.07 µg/mL (C. albicans; 0.07 mg/L, read-out: Growth Inhibition (%) C. albicans): 7.9%
- inhibition at 0.1 µg/mL (C. albicans; 0.1 mg/L, read-out: Growth Inhibition (%) C. albicans): 11.9%
- inhibition at 0.3 µg/mL (C. albicans; 0.3 mg/L, read-out: Growth Inhibition (%) C. albicans): 18.5%
- inhibition at 0.6 µg/mL (C. albicans; 0.6 mg/L, read-out: Growth Inhibition (%) C. albicans): 22.2%
- inhibition at […] (C. albicans; 1.1 mg/L, read-out: Growth Inhibition (%) C. albicans): 40.2%
- inhibition at […] (C. albicans; 2.2 mg/L, read-out: Growth Inhibition (%) C. albicans): 100%
- inhibition at […] (C. albicans; 4.5 mg/L, read-out: Growth Inhibition (%) C. albicans): 100%
- inhibition at […] (C. albicans; 8.9 mg/L, read-out: Growth Inhibition (%) C. albicans): 100%
- MIC (C. albicans; 120 h, 100% control, 5 days at 28 C, read-out: minimum inhibitory concentration (MIC) for C. albicans): 2.2 µg/mL (≈ 14.5 µM)
- Solubility in methanol (in words) [2]: not soluble in methanol at room temperature
